Among the data in patent US10519134B2, “Pyrazole compounds and methods of making and using same” (Lundbeck La Jolla Research Center, Inc., priority 2015, dated 2019) are IC50 and inhibition values, retold here.

As a reminder, the IC50 is the concentration that inhibits the measured activity by half. Read a low IC50 as greater potency in that assay.

For assay [1], the target named is T1, MAGL (Mus musculus, UniProt O35678).
T1 construct: Proteomes (mouse brain membrane fraction or cell lysates); from tissue; host or cells: mouse brain membrane fraction (or cell lysates)
T1 sequence (O35678 1-303): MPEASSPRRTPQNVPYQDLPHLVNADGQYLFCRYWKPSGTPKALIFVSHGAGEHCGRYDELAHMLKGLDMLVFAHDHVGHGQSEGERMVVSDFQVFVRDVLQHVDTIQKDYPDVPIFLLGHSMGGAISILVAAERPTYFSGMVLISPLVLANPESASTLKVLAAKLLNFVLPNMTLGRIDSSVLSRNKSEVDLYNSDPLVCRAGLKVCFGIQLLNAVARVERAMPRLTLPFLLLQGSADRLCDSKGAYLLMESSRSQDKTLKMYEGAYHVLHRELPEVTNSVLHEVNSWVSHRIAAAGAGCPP
Briefly: In vitro competitive activity-based protein profiling (mouse), MAGL gel band. It counts as biochemical. As to conditions: for IC50: mouse; for inhibition at 1 µM: read-out: MAGL % inh. 1 μM. Summed up: (§1)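 Mouse brain membrane proteome or cell lysate (1.0 mg/mL total protein) was preincubated with varying inhibitor concentrations for 30 min at 37 °C, then labelled for 30 min at 37 °C with FP-Rh or HT-01 (50 μM stock in DMSO). Activity was read as fluorescent band intensity after SDS-PAGE.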

Assay [2] concerns the target T2, FAAH (Mus musculus, UniProt O08914).
T2 construct: Proteomes (mouse brain membrane fraction or cell lysates); from tissue; host or cells: mouse brain membrane fraction (or cell lysates)
T2 sequence (O08914 1-579): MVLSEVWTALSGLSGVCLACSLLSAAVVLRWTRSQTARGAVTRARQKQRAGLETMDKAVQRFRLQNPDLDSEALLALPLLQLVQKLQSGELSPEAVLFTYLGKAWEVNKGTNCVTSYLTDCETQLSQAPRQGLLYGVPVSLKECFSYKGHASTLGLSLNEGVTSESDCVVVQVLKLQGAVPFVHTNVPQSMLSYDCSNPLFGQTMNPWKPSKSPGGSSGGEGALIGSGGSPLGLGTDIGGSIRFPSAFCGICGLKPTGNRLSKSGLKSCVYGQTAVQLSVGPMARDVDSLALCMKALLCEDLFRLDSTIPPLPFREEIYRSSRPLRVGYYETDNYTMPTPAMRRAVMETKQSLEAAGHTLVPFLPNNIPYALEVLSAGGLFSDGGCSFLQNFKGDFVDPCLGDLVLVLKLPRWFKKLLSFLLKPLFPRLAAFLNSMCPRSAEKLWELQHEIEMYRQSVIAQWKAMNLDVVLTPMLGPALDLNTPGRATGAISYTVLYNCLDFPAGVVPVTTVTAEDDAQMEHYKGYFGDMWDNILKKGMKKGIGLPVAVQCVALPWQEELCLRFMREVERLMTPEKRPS
Briefly: In vitro competitive activity-based protein profiling (mouse), FAAH gel band. It counts as biochemical. As to conditions: for IC50: mouse; for inhibition at 1 µM: read-out: FAAH % inh. 1 μM. Summed up: as §1

A value given as a limit tells only on which side of the number the result lay.

For the compound `CC(C)S(=O)(=O)Nc1ccn(C(=O)N2CCN(Cc3ccc(C(F)(F)F)cc3N3CCCC3)CC2)n1` [Example 134, N-(1-(4-(2-(pyrrolidin-1-yl)-4-(trifluoromethyl)benzyl)piperazine-1-carbonyl)-1H-pyrazol-3-yl)propane-2-sulfonamide], in assay [1], the IC50 fell in the range of 1000 to 10000 nM and the inhibition at 1 µM was in the range of 25 to 50%. In addition, in assay [2], the concentration for half-maximal inhibition (IC50) is 1000 to 10000 nM and the inhibition at 1 µM lay within 0 to 25%.
On to `CS(=O)(=O)Nc1ccn(C(=O)N2CCN(Cc3ccc(Cl)cc3N3CCOCC3)CC2)n1` [Example 135, N-(1-(4-(4-chloro-2-morpholinobenzyl)piperazine-1-carbonyl)-1H-pyrazol-3-yl) methanesulfonamide], for which the IC50 in assay [1] was in the range of 100 to 1000 nM; in assay [2], 1000 to 10000 nM. Moreover, the inhibition at 1 µM in assay [1] was at least 75%; in assay [2], 0 to 25%.
In the same order, the values of `Cc1ccc(CN2CCN(C(=O)n3ccc(NS(C)(=O)=O)n3)CC2)c(N2CCCCC2)c1` [Example 138, N-(1-(4-(4-methyl-2-(piperidin-1-yl)benzyl)piperazine-1-carbonyl)-1H-pyrazol-3-yl) methanesulfonamide] are 100 to 1000 nM, 1000 to 10000 nM, at least 75% and 0 to 25%.
For `CS(=O)(=O)Nc1ccn(C(=O)N2CCC3(CCCN3Cc3ccc(Cl)cc3N3C[C@H]4CC[C@@H](C3)O4)CC2)n1` [Example 139, N-(1-(1-(2-((1R,5S)-8-oxa-3-azabicyclo[3.2.1]octan-3-yl)-4-chlorobenzyl)-1,8-diazaspiro[4.5]decane-8-carbonyl)-1H-pyrazol-3-yl) methanesulfonamide] the same measures were 100 to 1000 nM, 1000 to 10000 nM, at least 75% and 0 to 25%.
For `CS(=O)(=O)Nc1ccn(C(=O)N2CCC3(CCCN3Cc3cccc(N4CCCC4)c3Cl)CC2)n1` [Example 141, N-(1-(1-(2-chloro-3-(pyrrolidin-1-yl)benzyl)-1,8-diazaspiro[4.5]decane-8-carbonyl)-1H-pyrazol-3-yl) methanesulfonamide] the same measures were 100 to 1000 nM, 1000 to 10000 nM, at least 75% and 0 to 25%.
With `CS(=O)(=O)Nc1ccn(C(=O)N2CCC3(CCCN3Cc3cccc(N4CCOCC4)c3Cl)CC2)n1` [Example 143, N-(1-(1-(2-chloro-3-morpholinobenzyl)-1,8-diazaspiro[4.5]decane-8-carbonyl)-1H-pyrazol-3-yl) methanesulfonamide], the inhibition at 1 µM in assay [1] was in the range of 50 to 75%; in assay [2] it was 0 to 25%.
With `CS(=O)(=O)Nc1ccn(C(=O)N2CCC3(CCCN3Cc3cccc(N4CCCCC4)c3Cl)CC2)n1` [Example 144, N-(1-(1-(2-chloro-3-(piperidin-1-yl)benzyl)-1,8-diazaspiro[4.5]decane-8-carbonyl)-1H-pyrazol-3-yl) methanesulfonamide], in assay [1], the IC50 lay within 100 to 1000 nM and the inhibition at 1 µM is at least 75%. Besides, in assay [2], the IC50 lay within 1000 to 10000 nM and the inhibition at 1 µM was in the range of 0 to 25%.
In the same order, the values of `CS(=O)(=O)Nc1ccn(C(=O)N2CCC3(CCCN3Cc3cccc(N4CC5CCC(C4)O5)c3Cl)CC2)n1` [Example 145, N-(1-(1-(3-(8-oxa-3-azabicyclo[3.2.1]octan-3-yl)-2-chlorobenzyl)-1,8-diazaspiro[4.5]decane-8-carbonyl)-1H-pyrazol-3-yl) methanesulfonamide] are 100 to 1000 nM, at least 75%, 1000 to 10000 nM and 0 to 25%.
On to `Cc1ccc(CN2CCN(C(=O)n3ccc(NS(C)(=O)=O)n3)CC2)c(N2CCOCC2)c1` [Example 147, N-(1-(4-(4-methyl-2-morpholinobenzyl)piperazine-1-carbonyl)-1H-pyrazol-3-yl) methanesulfonamide], for which the inhibition at 1 µM was at least 75% in assay [1] and 0 to 25% in assay [2].
As to `CS(=O)(=O)Nc1ccn(C(=O)N2CCC3(CCCN3Cc3cccc(Cl)c3)CC2)n1` [Example 148, N-(1-(1-(3-chlorobenzyl)-1,8-diazaspiro[4.5]decane-8-carbonyl)-1H-pyrazol-3-yl)methanesulfonamide], the inhibition at 1 µM in assay [1] and in assay [2] was 0 to 25% throughout.
As for `Cc1c(CN2CCCC23CCN(C(=O)n2ccc(NS(C)(=O)=O)n2)CC3)cccc1N1CC2CCC(C1)O2` [Example 149, N-(1-(1-(3-(8-oxa-3-azabicyclo[3.2.1]octan-3-yl)-2-methylbenzyl)-1,8-diazaspiro[4.5]decane-8-carbonyl)-1H-pyrazol-3-yl) methanesulfonamide], the inhibition at 1 µM in assay [1] lay within 50 to 75%; in assay [2], 0 to 25%.
In the case of `Cc1cc(-c2ccccc2)ccc1CN1CCN(C(=O)n2ccc(NS(C)(=O)=O)n2)CC1` [Example 150, N-(1-(4-((3-methyl-[1,1′-biphenyl]-4-yl)methyl)piperazine-1-carbonyl)-1H-pyrazol-3-yl) methanesulfonamide], in assay [1], the IC50 was 100 to 1000 nM and the inhibition at 1 µM was at least 75%. Further, in assay [2], the 50% inhibitory concentration (IC50) fell in the range of 100 to 1000 nM and the inhibition at 1 µM was at least 75%.
For the compound `COc1cc(-c2ccccc2)ccc1CN1CCN(C(=O)n2ccc(NS(C)(=O)=O)n2)CC1` [Example 151, N-(1-(4-((3-methoxy-[1,1′-biphenyl]-4-yl)methyl)piperazine-1-carbonyl)-1H-pyrazol-3-yl) methanesulfonamide], the inhibition at 1 µM in assay [1] is at least 75%; in assay [2], 25 to 50%.
On to `CS(=O)(=O)Nc1ccn(C(=O)N2CCN(Cc3ccc(C(F)(F)F)c(N4CCCC4)c3)CC2)n1` [Example 153, N-(1-(4-(3-(pyrrolidin-1-yl)-4-(trifluoromethyl)benzyl)piperazine-1-carbonyl)-1H-pyrazol-3-yl) methanesulfonamide], for which the inhibition at 1 µM was at least 75% in assay [1] and 0 to 25% in assay [2].
As for `CS(=O)(=O)Nc1ccn(C(=O)N2CCN(Cc3ccc(C(F)(F)F)c(Cl)c3)CC2)n1` [Example 154, N-(1-(4-(3-chloro-4-(trifluoromethyl)benzyl)piperazine-1-carbonyl)-1H-pyrazol-3-yl) methanesulfonamide], the inhibition at 1 µM is at least 75% in assay [1] and 0 to 25% in assay [2].
In the case of `CS(=O)(=O)Nc1ccn(C(=O)N2CCN(Cc3cc(N4CCOCC4)cc(C(F)(F)F)c3)CC2)n1` [Example 155, N-(1-(4-(3-morpholino-5-(trifluoromethyl)benzyl)piperazine-1-carbonyl)-1H-pyrazol-3-yl) methanesulfonamide], the values for the inhibition at 1 µM in assay [1] and in assay [2] were at least 75% and 0 to 25%, respectively.
For the compound `CS(=O)(=O)Nc1ccn(C(=O)N2CCN(Cc3ccc(N4CCOCC4)cc3C(F)(F)F)CC2)n1` [Example 157, N-(1-(4-(4-morpholino-2-(trifluoromethyl)benzyl)piperazine-1-carbonyl)-1H-pyrazol-3-yl) methanesulfonamide], the results for the inhibition at 1 µM in assay [1] and in assay [2] were 25 to 50% and 0 to 25%, respectively.
Turning to `CS(=O)(=O)Nc1ccn(C(=O)N2CCN(Cc3ccc(-c4ccccc4)cc3Cl)CC2)n1` [Example 158, N-(1-(4-((3-chloro-[1,1′-biphenyl]-4-yl)methyl)piperazine-1-carbonyl)-1H-pyrazol-3-yl) methanesulfonamide], in assay [1], the IC50 is at most 100 nM and the inhibition at 1 µM is at least 75%. In assay [2], the IC50 lay in the range of 100 to 1000 nM and the inhibition at 1 µM is at least 75%.
As to `CS(=O)(=O)Nc1ccn(C(=O)N2CCC3(CCCN3Cc3ccc(C(F)(F)F)c(N4CCCC4)c3)CC2)n1` [Example 160, N-(1-(1-(3-(pyrrolidin-1-yl)-4-(trifluoromethyl)benzyl)-1,8-diazaspiro[4.5]decane-8-carbonyl)-1H-pyrazol-3-yl) methanesulfonamide], the results for the inhibition at 1 µM in assay [1] and in assay [2] were at least 75% and 0 to 25%, respectively.
Regarding `CS(=O)(=O)Nc1ccn(C(=O)N2CCC3(CCCN3Cc3cc(N4CCOCC4)cc(C(F)(F)F)c3)CC2)n1` [Example 162, N-(1-(1-(3-morpholino-5-(trifluoromethyl)benzyl)-1,8-diazaspiro[4.5]decane-8-carbonyl)-1H-pyrazol-3-yl) methanesulfonamide], the inhibition at 1 µM in assay [1] is at least 75%; in assay [2], 0 to 25%.
